Values belong to the compound of their own block, whether it stands above or below them.
Assays:
[1] = target: T1, Ephrin type-A receptor 3 (Homo sapiens) (UniProt P29320); settings: at 10 µM
T1 sequence (whole entry): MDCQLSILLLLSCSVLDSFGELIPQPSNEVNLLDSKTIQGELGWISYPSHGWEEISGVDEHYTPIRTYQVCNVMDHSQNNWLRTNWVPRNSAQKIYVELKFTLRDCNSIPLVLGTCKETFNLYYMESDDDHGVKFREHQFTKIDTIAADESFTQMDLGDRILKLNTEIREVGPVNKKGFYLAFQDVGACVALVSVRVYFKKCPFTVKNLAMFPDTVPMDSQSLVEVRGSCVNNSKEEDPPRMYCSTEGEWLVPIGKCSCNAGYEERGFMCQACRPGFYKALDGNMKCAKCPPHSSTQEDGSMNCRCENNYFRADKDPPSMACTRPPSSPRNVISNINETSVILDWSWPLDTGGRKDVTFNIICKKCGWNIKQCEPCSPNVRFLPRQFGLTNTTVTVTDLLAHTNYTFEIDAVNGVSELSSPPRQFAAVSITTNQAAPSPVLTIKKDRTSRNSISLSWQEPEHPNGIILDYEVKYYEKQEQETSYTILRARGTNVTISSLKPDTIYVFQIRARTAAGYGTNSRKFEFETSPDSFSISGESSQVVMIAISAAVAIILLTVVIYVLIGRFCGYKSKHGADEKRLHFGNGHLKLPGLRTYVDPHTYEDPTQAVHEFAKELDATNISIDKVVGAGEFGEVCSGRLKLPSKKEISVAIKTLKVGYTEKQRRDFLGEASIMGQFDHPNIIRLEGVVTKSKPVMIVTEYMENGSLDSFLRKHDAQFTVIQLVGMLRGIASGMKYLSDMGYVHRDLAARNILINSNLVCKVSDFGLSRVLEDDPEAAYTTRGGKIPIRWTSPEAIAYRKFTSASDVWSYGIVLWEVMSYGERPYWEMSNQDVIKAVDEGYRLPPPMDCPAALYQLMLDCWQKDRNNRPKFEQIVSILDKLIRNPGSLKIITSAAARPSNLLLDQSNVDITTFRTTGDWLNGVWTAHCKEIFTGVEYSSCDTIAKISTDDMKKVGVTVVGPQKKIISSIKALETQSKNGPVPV

[2] = target: T2, Serine/threonine-protein kinase ULK2 (Homo sapiens) (UniProt Q8IYT8); experiment: Selectivity interaction (KinomeScan (DiscoverX)) EUB0000618a ULK2; settings: at 10 µM
T2 sequence (whole entry): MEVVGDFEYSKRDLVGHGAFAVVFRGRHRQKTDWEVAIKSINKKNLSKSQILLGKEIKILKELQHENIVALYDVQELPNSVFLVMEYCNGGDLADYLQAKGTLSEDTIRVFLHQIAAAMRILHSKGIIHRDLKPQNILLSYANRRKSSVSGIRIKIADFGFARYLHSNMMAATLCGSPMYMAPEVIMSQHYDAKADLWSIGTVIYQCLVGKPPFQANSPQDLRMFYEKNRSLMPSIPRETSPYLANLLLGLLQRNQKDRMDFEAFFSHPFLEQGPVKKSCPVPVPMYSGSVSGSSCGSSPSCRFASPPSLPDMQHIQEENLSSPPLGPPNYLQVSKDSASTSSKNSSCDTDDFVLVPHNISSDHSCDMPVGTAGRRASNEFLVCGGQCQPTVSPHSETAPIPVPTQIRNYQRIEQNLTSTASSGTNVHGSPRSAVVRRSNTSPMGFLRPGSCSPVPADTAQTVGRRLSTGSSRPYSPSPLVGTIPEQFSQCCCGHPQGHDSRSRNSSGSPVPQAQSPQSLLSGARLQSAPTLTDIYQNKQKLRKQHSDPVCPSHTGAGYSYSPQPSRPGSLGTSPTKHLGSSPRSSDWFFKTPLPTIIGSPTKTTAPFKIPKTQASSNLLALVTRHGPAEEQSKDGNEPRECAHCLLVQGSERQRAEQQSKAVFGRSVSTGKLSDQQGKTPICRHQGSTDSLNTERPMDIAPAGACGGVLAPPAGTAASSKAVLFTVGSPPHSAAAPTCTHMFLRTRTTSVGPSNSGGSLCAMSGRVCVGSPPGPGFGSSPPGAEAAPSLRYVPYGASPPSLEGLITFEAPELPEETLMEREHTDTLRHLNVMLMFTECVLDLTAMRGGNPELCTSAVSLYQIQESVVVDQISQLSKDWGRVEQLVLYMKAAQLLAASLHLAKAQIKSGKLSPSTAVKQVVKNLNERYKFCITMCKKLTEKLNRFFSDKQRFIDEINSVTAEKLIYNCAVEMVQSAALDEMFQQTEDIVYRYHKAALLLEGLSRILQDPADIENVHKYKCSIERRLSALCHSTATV

[3] = target: T3, Rhodopsin kinase GRK1 (Homo sapiens) (UniProt Q15835); experiment: Selectivity interaction (KinomeScan (DiscoverX)) EUB0000618a GRK1; settings: at 10 µM
T3 sequence (whole entry): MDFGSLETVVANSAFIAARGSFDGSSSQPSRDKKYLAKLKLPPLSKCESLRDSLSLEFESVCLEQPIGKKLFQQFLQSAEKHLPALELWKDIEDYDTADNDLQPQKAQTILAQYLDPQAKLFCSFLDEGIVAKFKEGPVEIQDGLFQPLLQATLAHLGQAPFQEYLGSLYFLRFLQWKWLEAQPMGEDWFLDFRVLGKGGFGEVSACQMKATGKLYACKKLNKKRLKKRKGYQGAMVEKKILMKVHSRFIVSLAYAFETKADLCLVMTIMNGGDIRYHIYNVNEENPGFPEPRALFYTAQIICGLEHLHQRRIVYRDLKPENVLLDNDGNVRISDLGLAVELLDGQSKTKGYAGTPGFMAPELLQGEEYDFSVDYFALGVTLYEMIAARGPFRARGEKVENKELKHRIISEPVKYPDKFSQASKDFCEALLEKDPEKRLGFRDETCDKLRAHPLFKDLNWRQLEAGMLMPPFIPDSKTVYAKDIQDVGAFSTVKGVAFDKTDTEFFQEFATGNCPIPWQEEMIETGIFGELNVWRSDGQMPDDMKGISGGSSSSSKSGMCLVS

[4] = target: Insulin receptor-related protein (Homo sapiens) (UniProt P14616); experiment: Selectivity interaction (KinomeScan (DiscoverX)) EUB0000595a INSRR; settings: at 10 µM
[5] = target: Receptor-interacting serine/threonine-protein kinase 3 (Homo sapiens) (UniProt Q9Y572); experiment: Selectivity interaction (Kinase panel (KiNativ target engagement assay in Jurkat cells)) EUB0001635a RIPK3; assay type: cell-based; settings: Selectivity number of off-targets 0.0, Selectivity number of targets 233.0, Source Knowledge https://www.sciencedirect.com/science/article/pii/S2451945619300674?via%3Dihub, at 1 µM
[6] = target: Cyclin-dependent kinase 17 (Homo sapiens) (UniProt Q00537); experiment: Selectivity interaction (ActivX KiNativ screen (kinase selectivity in THP-1 cell lysates)) EUB0000639a CDK17; assay type: subcellular; settings: lysate, at 0.2 µM
[7] = target: Casein kinase I isoform delta (Homo sapiens, UniProt P48730); experiment: Selectivity interaction (Kinase panel (Invitrogen)) EUB0000639a CSNK1D; settings: at 200 nM
Sequence of Casein kinase I isoform delta (P48730 whole entry, looked up, canonical isoform): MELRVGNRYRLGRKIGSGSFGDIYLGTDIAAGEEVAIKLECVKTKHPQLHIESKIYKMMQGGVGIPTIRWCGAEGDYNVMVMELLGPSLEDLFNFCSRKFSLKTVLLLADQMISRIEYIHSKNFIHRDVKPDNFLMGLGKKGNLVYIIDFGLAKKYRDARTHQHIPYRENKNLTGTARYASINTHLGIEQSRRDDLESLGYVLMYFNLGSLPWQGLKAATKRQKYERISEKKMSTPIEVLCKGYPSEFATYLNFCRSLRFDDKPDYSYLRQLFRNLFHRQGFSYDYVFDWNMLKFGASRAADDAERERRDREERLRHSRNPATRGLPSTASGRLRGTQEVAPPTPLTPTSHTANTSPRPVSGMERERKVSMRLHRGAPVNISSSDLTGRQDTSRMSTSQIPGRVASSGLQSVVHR

Sequence of Receptor-interacting serine/threonine-protein kinase 3 (Homo sapiens) (Q9Y572 whole entry, looked up): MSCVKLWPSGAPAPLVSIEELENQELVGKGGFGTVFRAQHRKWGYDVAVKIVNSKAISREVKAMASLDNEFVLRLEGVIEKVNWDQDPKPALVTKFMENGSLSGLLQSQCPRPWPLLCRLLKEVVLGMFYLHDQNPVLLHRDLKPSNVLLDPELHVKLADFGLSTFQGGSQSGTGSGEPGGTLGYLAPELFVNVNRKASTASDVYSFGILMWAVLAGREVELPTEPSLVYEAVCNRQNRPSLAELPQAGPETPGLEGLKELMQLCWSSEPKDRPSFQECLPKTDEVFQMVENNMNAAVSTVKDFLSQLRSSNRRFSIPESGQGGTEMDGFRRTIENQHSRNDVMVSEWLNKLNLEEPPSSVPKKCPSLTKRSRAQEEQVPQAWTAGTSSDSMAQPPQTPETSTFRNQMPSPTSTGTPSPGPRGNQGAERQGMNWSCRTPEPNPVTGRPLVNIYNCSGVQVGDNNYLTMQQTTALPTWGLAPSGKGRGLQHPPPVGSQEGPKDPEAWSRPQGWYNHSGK
Sequence of Cyclin-dependent kinase 17 (Homo sapiens) (Q00537 whole entry, looked up, canonical isoform): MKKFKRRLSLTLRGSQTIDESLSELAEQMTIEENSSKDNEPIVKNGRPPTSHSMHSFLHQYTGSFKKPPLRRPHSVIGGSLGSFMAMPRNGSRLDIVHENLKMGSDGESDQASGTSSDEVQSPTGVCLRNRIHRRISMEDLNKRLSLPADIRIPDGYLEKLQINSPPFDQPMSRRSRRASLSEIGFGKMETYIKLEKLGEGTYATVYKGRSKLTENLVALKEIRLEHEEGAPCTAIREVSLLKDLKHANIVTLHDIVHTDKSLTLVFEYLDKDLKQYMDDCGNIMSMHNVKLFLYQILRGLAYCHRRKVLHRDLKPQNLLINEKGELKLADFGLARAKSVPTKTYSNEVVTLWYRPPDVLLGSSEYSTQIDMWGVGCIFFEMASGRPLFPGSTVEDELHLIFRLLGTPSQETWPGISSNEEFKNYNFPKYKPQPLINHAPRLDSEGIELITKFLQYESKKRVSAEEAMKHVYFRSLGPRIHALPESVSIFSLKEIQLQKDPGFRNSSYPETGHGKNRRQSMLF
Sequence of Insulin receptor-related protein (Homo sapiens) (P14616 27-742 limits assumed): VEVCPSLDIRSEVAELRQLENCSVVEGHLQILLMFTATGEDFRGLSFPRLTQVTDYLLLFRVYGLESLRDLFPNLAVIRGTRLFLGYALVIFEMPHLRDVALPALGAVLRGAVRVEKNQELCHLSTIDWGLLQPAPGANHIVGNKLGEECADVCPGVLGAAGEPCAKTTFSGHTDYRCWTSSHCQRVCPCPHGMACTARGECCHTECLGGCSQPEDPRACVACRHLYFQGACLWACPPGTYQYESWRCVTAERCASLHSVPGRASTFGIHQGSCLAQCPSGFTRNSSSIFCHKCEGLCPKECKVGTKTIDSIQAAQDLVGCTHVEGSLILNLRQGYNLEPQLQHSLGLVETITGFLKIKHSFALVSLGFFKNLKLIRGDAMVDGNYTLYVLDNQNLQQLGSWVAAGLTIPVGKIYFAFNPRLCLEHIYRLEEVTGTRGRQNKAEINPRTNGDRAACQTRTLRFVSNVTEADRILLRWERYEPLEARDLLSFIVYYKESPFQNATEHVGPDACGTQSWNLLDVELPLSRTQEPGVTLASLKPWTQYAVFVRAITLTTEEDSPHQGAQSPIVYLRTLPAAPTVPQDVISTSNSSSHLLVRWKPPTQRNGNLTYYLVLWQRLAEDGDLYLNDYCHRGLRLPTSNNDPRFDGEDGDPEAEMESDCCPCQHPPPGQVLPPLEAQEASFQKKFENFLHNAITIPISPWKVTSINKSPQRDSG
Sequence of Insulin receptor-related protein (Homo sapiens) (P14616 747-1297 limits assumed): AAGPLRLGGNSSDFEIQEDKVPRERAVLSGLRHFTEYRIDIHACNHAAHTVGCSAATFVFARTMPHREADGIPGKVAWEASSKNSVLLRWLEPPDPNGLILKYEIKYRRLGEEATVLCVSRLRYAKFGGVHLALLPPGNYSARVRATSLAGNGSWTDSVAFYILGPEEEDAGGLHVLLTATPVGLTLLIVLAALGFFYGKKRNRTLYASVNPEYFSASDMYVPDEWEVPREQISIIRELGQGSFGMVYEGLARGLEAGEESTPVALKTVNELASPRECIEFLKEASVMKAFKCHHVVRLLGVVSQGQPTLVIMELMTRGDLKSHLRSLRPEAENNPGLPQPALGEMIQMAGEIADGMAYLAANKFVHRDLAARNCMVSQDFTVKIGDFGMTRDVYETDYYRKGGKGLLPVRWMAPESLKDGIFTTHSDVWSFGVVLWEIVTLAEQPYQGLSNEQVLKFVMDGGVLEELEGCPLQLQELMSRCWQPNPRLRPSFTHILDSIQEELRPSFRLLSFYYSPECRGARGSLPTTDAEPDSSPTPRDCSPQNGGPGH

- % of control [1]: 100%
Compound: CCN(CC)CCCCNc1ncc2cc(-c3cc(OC)cc(OC)c3)c(NC(=O)NC(C)(C)C)nc2n1

Compound: O[C@H]1CC[C@H](Nc2ncc3nc(Nc4c(F)cc(F)cc4F)n([C@H]4CCOC4)c3n2)CC1
- % of control [2]: 89%
- % of control [3]: 78%

Compound: COCC(=O)NC/C=C/c1ccc2ncnc(Nc3ccc(Oc4ccc(C)nc4)c(C)c3)c2c1 [CP-724714]
- % of control [4]: 100%

Compound: C=CC(=O)Nc1ccc(C(=O)Nc2[nH]nc3c2CN(C(=O)N[C@H](CN(C)C)c2ccccc2)C3(C)C)cc1
- % of engagement [5]: -0.8%

- % of inhibition [6]: 0.4%
- % of inhibition [7]: 52.2%
Compound: CC[C@@H]1[C@H](F)C(=O)N[C@@H]1COc1nccc2cc(C(N)=O)c(OC)cc12 [ZIMLOVISERTIB]
